From BindingDB's records for doi:10.1124/jpet.102.47407 (University of Tennessee, 2003)
Values joined by “and” are separate entries in the source; they are usually repeats but may differ in a detail not shown here. Equal entries are not always repeated.

Each compound was assayed against T1, cAMP-specific 3',5'-cyclic phosphodiesterase 4B (Rattus norvegicus, UniProt P14646).
T1 sequence (P14646 whole entry): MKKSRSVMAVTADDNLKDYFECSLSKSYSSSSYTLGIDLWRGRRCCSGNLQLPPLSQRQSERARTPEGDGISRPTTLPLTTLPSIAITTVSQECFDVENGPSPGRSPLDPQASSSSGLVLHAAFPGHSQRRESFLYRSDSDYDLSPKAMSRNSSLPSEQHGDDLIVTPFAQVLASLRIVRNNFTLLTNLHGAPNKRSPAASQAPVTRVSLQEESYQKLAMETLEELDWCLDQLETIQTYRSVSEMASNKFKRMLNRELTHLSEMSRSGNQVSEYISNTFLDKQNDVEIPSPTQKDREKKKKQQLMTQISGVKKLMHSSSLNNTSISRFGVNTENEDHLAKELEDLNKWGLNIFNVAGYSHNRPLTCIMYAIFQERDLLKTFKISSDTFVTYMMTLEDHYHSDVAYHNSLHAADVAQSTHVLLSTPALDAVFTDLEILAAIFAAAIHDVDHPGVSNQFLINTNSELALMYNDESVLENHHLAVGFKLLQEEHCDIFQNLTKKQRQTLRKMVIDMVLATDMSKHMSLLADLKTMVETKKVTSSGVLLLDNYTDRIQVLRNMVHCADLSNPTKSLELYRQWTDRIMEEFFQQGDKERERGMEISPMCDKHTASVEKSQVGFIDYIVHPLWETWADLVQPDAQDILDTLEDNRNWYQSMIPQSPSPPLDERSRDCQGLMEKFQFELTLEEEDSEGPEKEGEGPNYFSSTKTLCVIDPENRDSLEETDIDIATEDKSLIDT
With COc1ccc(Cc2nccc3cc(OC)c(OC)cc23)cc1OC the Ki was > 10 µM and 8.82 µM. For CC(C)Cn1c(=O)n(C)c(=O)c2[nH]cnc21 [1-methyl-3-(2-methylpropyl)-2,3,6,7-tetrahydro-1H-purine-2,6-dione], the Ki was 8.4 µM and 3.09 µM. For COc1cc2c(cc1OC)-c1c/c(=N\c3c(C)cc(C)cc3C)n(C)c(=O)n1CC2 [CAS_5537], the Ki was > 10 µM and 3.15 µM. With COc1ccc(C(Cc2ccncc2)c2ccccc2)cc1OC1CCCC1 (configuration not stated) [CDP 840] the Ki was 0.9 µM and 1.25 µM. O=C(Nc1c(Cl)cncc1Cl)c1ccc(OC(F)F)c(OCC2CC2)c1 [DAXAS] was tested, and the Ki was 0.003 µM and 0.0024 µM. Cc1[nH]c(=O)c(C#N)cc1-c1ccncc1 [Milrinone] was tested, and the Ki was over 10 µM. CCOC(=O)C1=CC2(CC)CCCN3CCc4c(n1c1ccccc41)C32 (configuration not stated) [NSC_443955] was tested, and the Ki was 1 µM.
